Measured values as given in patent US20250186656A1, “SHAPE MORPHING HYDROGEL ACTUATORS AND CONSTRUCTS” (Case Western Reserve University, priority 2022, published 2025).

Tests used:
[1] = tested on: NIH 3T3 cell-laden bilayer constructs (cell-generated forces, actin polymerization); test: Cytochalasin D treatment of cell-laden bilayer constructs; type: cell-based
Text: To accomplish bilayer printing, two syringes were loaded into the 3D printer: the first contained only reconstituted OMA microgels (cell-free bioink); the second contained the cell-laden bioink. For bilayer rectangles, a 25 mm×25 mm×0.2 mm square was printed with the cell-free bioink. Three cell-laden rectangles measuring 18 mm×4 mm×0.6 mm were then printed directly on top of the cell-free square, spaced 4 mm apart. After crosslinking constructs with UV light, the cell-free layer was cut with a razor blade to match the geometry of the cell-laden rectangles, forming bilayer rectangles. Dead controls were generated by incubating cells in acetone for 30 minutes before forming the cell-laden bioink.
To further illustrate the role of cell-generated forces in the observed spatiotemporal changes, the effect of Cytochalasin D, a known inhibitor of actin polymerization, was studied. Cytochalasin D was weighed and dissolved in sterile dimethyl sulfoxide (DMSO) at a concentration of 5 mM and stored at 4° C. Bilayer rectangles were printed and cultured in culture media supplemented with 0.1% v/v Cytochalasin D, resulting in a final Cytochalasin D concentration of 5 μM. Half of the media was replaced every day, with fresh Cytochalasin D added at 0.1% v/v each time. To ensure that any change in behavior is being caused by Cytochalasin D and not DMSO, four bilayer rectangles were cultured in culture media with 0.1% v/v DMSO. These media conditions were also compared to bilayer rectangles cultured in normal culture media.
After culture duration was complete, samples were fixed overnight in 10% neutral buffered formalin at room temperature. Samples were then dehydrated through one-hour incubations in 70% ethanol, 95% ethanol, 100% ethanol, 1:1 mixture of ethanol and xylenes, and two separate 100% xylenes. Samples were then submerged in molten paraffin for at least 24 hours before being embedded in paraffin blocks. 5-μm sections were obtained from blocks using a microtome and mounted on microscope slides. Hematoxilyn and eosin (H&E) sections were stained with hematoxilyn for 2 minutes followed by counterstaining with eosin for 30 seconds. Safrananin O and fast green sections were stained with 0.1% Safranin O for 5 minutes followed by counterstaining with 0.05% fast green for 1 minute. Alcian blue and nuclear fast red sections were stained with alcian blue ([…]) for 30 minutes followed by counterstaining with nuclear fast red for 5 minutes.
Dissection microscope images were used to measure bending angle as described in FIG. 72. Briefly, a circle with crosshairs was superimposed on each image using Microsoft Powerpoint. […] Using this method, a construct that has bent into a half circle is measured as 180 degrees, while a construct whose ends are touching is measured as 360 degrees. […]

cells = test: Cytocompatibility of UV absorber HMAP (cell viability); type: cell-based; conditions: all the tested concentrations

Structure (SMILES) | macroscopic shape change of bilayer constructs ([1]; 5 μM in growth medium, over duration of culture (14 days)) | cell death (live/dead) ([1]; 5 μM, day 14) | cell morphology (live/dead images) ([1]; 5 μM, day 14) | fibrous border formation (H&E histology) ([1]; 5 μM, day 14) | cell viability (cells) [%]
C=C1[C@@H](C)[C@H]2[C@H](Cc3ccccc3)NC(=O)[C@]23[C@H](OC(C)=O)/C=C/[C@@](C)(O)C(=O)[C@@H](C)C/C=C/[C@H]3[C@@H]1O [Cytochalasin D] | no macroscopic changes in shape | no sign of cell death | more rounded | unable to form this fibrous border | –
CC(=O)c1ccc(O)c(C)c1 [HMAP, 4′-hydroxy-3′-methylacetophenone] | – | – | – | – | > 90
